Results as given in patent publication US20240140965A1, “TRICYCLIC PESTICIDAL COMPOUNDS” (priority 2021, published 2024).

What was measured:
Type in all cases: in vivo
[1] = test system: boll weevil (Anthonomus grandis); assay: Boll weevil (Anthonomus grandis) egg and larval mortality, insect diet microtiter plate; settings: 120 h, read-out: mortality in comparison with untreated controls
Description: For evaluating control of boll weevil (Anthonomus grandis) the test unit consisted of 96-well-microtiter plates containing an insect diet and 5-10 A. grandis eggs. The compounds were formulated using a solution containing 75% v/v water and 25% v/v DMSO. Different concentrations of formulated compounds were sprayed onto the insect diet at 5 μl, using a custom built micro atomizer, at two replications. After application, microtiter plates were incubated at about 25±1° C. and about 75±5% relative humidity for 5 days. Egg and larval mortality was then visually assessed.

[2] = test system: tobacco budworm (Heliothis virescens); assay: Tobacco budworm (Heliothis virescens) egg and larval mortality, insect diet microtiter plate; settings: 120 h, read-out: mortality in comparison with untreated controls
Description: For evaluating control of tobacco budworm (Heliothis virescens) the test unit consisted of 96-well-microtiter plates containing an insect diet and 15-25 H. virescens eggs.
The compounds were formulated using a solution containing 75% v/v water and 25% v/v DMSO. Different concentrations of formulated compounds were sprayed onto the insect diet at 10 μl, using a custom built micro atomizer, at two replications. After application, microtiter plates were incubated at about 28±1° C. and about 80±5% relative humidity for 5 days. Egg and larval mortality was then visually assessed.

[3] = test system: Southern Armyworm (Spodoptera eridania), 2nd instar larvae; assay: Southern armyworm (Spodoptera eridania) 2nd instar larvae mortality on sprayed lima bean plants; settings: 96 h, read-out: mortality in comparison with untreated controls
Description: The active compounds were formulated by a Tecan liquid handler in 100% cyclohexanone as a 10,000 ppm solution supplied in tubes. The 10,000 ppm solution was serially diluted in 100% cyclohexanone to make interim solutions. These served as stock solutions for which final dilutions were made by the Tecan in 50% acetone:50% water (v/v) into 10 or 20 ml glass vials. A nonionic surfactant (Kinetic®) was included in the solution at a volume of 0.01% (v/v). The vials were then inserted into an automated electrostatic sprayer equipped with an atomizing nozzle for application to plants/insects. Lima bean plants (variety Sieva) were grown 2 plants to a pot and selected for treatment at the 1st true leaf stage. Test solutions were sprayed onto the foliage by an automated electrostatic plant sprayer equipped with an atomizing spray nozzle. The plants were dried in the sprayer fume hood and then removed from the sprayer. Each pot was placed into perforated plastic bags with a zip closure. Ten to 11 armyworm larvae were placed into the bag and the bags zipped closed. Test plants were maintained in a growth room at about 25° C. and about 20-40% relative humidity for 4 days, avoiding direct exposure to fluorescent light (14:10 light:dark photoperiod) to prevent trapping of heat inside the bags. Mortality and reduced feeding were assessed 4 days after treatment, compared to untreated control plants.

[4] = test system: yellow fever mosquito (Aedes aegypti); assay: whole plant or invertebrate; settings: 48 h, larval mortality after 2 days, read-out: mortality in comparison with untreated controls
Description: For evaluating control of yellow fever mosquito (Aedes aegypti) the test unit consisted of 96-well-microtiter plates containing 200 μl of tap water per well and 5-15 freshly hatched A. aegypti larvae. The active compounds were formulated using a solution containing 75% (v/v) water and 25% (v/v) DMSO. Different concentrations of formulated compounds or mixtures were sprayed onto the insect diet at 2.5 μl, using a custom built micro atomizer, at two replications. After application, microtiter plates were incubated at 28+1° C., 80+5% RH for 2 days. Larval mortality was then visually assessed.

[5] = test system: Green Peach Aphid (Myzus persicae); assay: Green peach aphid (Myzus persicae) mortality on sprayed bell pepper plants; settings: 120 h, read-out: mortality in comparison with untreated controls
Description: The active compounds were formulated by a Tecan liquid handler in 100% cyclohexanone as a 10,000 ppm solution supplied in tubes. The 10,000 ppm solution was serially diluted in 100% cyclohexanone to make interim solutions. These served as stock solutions for which final dilutions were made by the Tecan in 50% acetone:50% water (v/v) into 10or 20 ml glass vials. A nonionic surfactant (Kinetic®) was included in the solution at a volume of 0.01% (v/v). The vials were then inserted into an automated electrostatic sprayer equipped with an atomizing nozzle for application to plants/insects. Bell pepper plants at the first true-leaf stage were infested prior to treatment by placing heavily infested leaves from the main colony on top of the treatment plants. Aphids were allowed to transfer overnight to accomplish an infestation of 30-50 aphids per plant and the host leaves were removed. The infested plants were then sprayed by an automated electrostatic plant sprayer equipped with an atomizing spray nozzle. The plants were dried in the sprayer fume hood, removed, and then maintained in a growth room under fluorescent lighting in a 14:10 light:dark photoperiod at about 25° C. and about 20-40% relative humidity. Aphid mortality on the treated plants, relative to mortality on untreated control plants, was determined after 5 days.

[6] = test system: Red Spider Mite (Tetranychus kanzawai); assay: Red spider mite (Tetranychus kanzawai) mortality on sprayed cowpea beans; settings: 72 h, read-out: mortality in comparison with untreated controls
Description: The active compound is dissolved at the desired concentration in a mixture of 1:1 (vol:vol) distilled water:acetone. Add surfactant (Kinetic) is added at a rate of 0.01% (vol/vol). The test solution is prepared at the day of use. Potted cowpea beans of 4-5 days of age are cleaned with tap water and sprayed with 1-2 ml of the test solution using air driven DeVilbiss® hand atomizer at 20-30 psi (≈1.38 to 2.07 bar). The treated plants are allowed to air dry and afterwards inoculated with 30 or more mites by clipping a cassava leaf section from rearing population. Treated plants are placed inside a holding room at about 25-26° C. and about 65-70% relative humidity. Estimate percent mortality is assessed 72 hours after treatment.

CCS(=O)(=O)c1cc(-c2ccc(F)cc2)cnc1-c1cn2c(n1)SCc1c-2cccc1C(F)(F)F [Compound I.1, 2-[3-ethylsulfonyl-5-(4-fluorophenyl)-2-pyridyl]-6-(trifluoromethyl)-5H-imidazo[1,2-a][3,1]benzothiazine]
> 70%: mortality at 10 ppm [1] | mortality at 30 ppm [2] | mortality at 1 ppm [3] | mortality at 80 ppm [4]

CCS(=O)(=O)c1cc(-c2ccc(F)cc2)cnc1-c1cn2c(n1)CSc1c-2cccc1C(F)(F)F [Compound I.2, 2-[3-ethylsulfonyl-5-(4-fluorophenyl)-2-pyridyl]-6-(trifluoromethyl)-4H-imidazo[2,1-c][1,4]benzothiazine]
> 70%: mortality at 10 ppm [1] | mortality at 90 ppm [5] | mortality at 30 ppm [2] | mortality at 1 ppm [3] | mortality at 80 ppm [4]

CCS(=O)(=O)c1cc(-c2ccc(F)cc2)cnc1-c1cn2c(n1)OCc1c-2cccc1C(F)(F)F [Compound I.3, 2-[3-ethylsulfonyl-5-(4-fluorophenyl)-2-pyridyl]-6-(trifluoromethyl)-5H-imidazo[1,2-a][3,1]benzoxazine]
> 70%: mortality at 10 ppm [1] | mortality at 90 ppm [5] | mortality at 800 ppm [6] | mortality at 30 ppm [2] | mortality at 1 ppm [3] | mortality at 80 ppm [4]

CCS(=O)(=O)c1cc(-c2ccc(F)cc2)cnc1-c1cn2c(n1)COc1c-2cccc1C(F)(F)F [Compound I.4, 2-[3-ethylsulfonyl-5-(4-fluorophenyl)-2-pyridyl]-6-(trifluoromethyl)-4H-imidazo[2,1-c][1,4]benzoxazine]
> 70%: mortality at 10 ppm [1] | mortality at 30 ppm [2] | mortality at 1 ppm [3] | mortality at 80 ppm [4]

CCS(=O)(=O)c1cc(N=S(C)(C)=O)cnc1-c1cn2c(n1)COc1c-2cccc1C(F)(F)F [Compound I.5, [5-ethylsulfonyl-6-[6-(trifluoromethyl)-4H-imidazo[2,1-c][1,4]benzoxazin-2-yl]-3-pyridyl]imino-dimethyl-oxo-lambda6-sulfane]
> 70%: mortality at 250 ppm [1] | mortality at 250 ppm [5] | mortality at 250 ppm ([4]; 250 ppm)
